From ChEMBL document CHEMBL3045833, “Synthesis and antifungal activity of novel 7-O-substituted pyridyl-4-methyl coumarin derivatives” (2013) come the findings set out here.

Common to all, as to format: functional
In assay [1] the test system is Candida parapsilosis. Kind of assay: Antifungal activity against Candida parapsilosis assessed as growth inhibition by NCCLS microbroth dilution method. As to conditions: Lodderomyces parapsilosis.
Assay [2] concerns Aspergillus fumigatus. As to the kind of experiment: Antifungal activity against Aspergillus fumigatus assessed as growth inhibition by NCCLS microbroth dilution method.
Assay [3] relates to Candida tropicalis. Kind of assay: Antifungal activity against Candida tropicalis assessed as growth inhibition by NCCLS microbroth dilution method.
Assay [4] concerns Kluyveromyces marxianus. Kind of assay: Antifungal activity against Kluyveromyces marxianus assessed as growth inhibition by NCCLS microbroth dilution method.
For assay [5], the system named is Candida albicans. As to the kind of experiment: Antifungal activity against Candida albicans Y0109 assessed as growth inhibition after 24 hr by NCCLS microbroth dilution method. As to conditions: Y0109, 24 h.
Assay [6] has as its system Trichophyton rubrum. Kind of assay: Antifungal activity against Trichophyton rubrum assessed as growth inhibition by NCCLS microbroth dilution method.
The test system of assay [7] is Candida albicans. Kind of assay: Antifungal activity against Candida albicans SC5314 assessed as growth inhibition after 24 hr by NCCLS microbroth dilution method. As to conditions: SC5314, 24 h.
The test system of assay [8] is Cryptococcus neoformans. Kind of assay: Antifungal activity against Cryptococcus neoformans assessed as growth inhibition after 72 hr by NCCLS microbroth dilution method.

≈ marks a conversion by molar mass, not a printed value. Bounds are passed on as bounds.

With `Cc1cc(=O)oc2cc(Oc3ccc(NC(=O)c4cccs4)cn3)ccc12`, the MIC80 was 32 µg/mL in assay [1]; > 64 µg/mL in assay [2]; 16 µg/mL in assay [3]; 32 µg/mL in assay [4]; 16 µg/mL (≈ 42.3 µM) in assay [5]; 16 µg/mL in assay [6]. Besides, the MIC80 in assay [7] and in assay [8] was 32 µg/mL (≈ 84.6 µM) in each case.

Regarding `Cc1cc(=O)oc2cc(Oc3ccc(NC(=O)Cc4c[nH]c5ccccc45)cn3)ccc12`, the MIC80 in assay [1] is > 64 µg/mL; in assay [2], > 64 µg/mL; in assay [3], > 64 µg/mL; in assay [4], > 64 µg/mL; in assay [5] it was 64 µg/mL (≈ 150 µM); in assay [6] it was 16 µg/mL. In addition, the MIC80 in assay [7] was > 64 µg/mL; in assay [8], 8 µg/mL (≈ 18.8 µM).

Consider `Cc1cc(=O)oc2cc(Oc3ccc([N+](=O)[O-])cn3)ccc12`, for which the MIC80 is 32 µg/mL in assay [1]; > 64 µg/mL in assay [2]; > 64 µg/mL in assay [3]; > 64 µg/mL in assay [4]; 64 µg/mL (≈ 215 µM) in assay [5]; 64 µg/mL in assay [6]. Besides, the MIC80 is > 64 µg/mL in assay [7] and 64 µg/mL (≈ 215 µM) in assay [8].

As for `Cc1cc(=O)oc2cc(Oc3ccc(N)cn3)ccc12`, the MIC80 is 32 µg/mL in assay [1]; > 64 µg/mL in assay [2]; > 64 µg/mL in assay [3]; > 64 µg/mL in assay [4]; 16 µg/mL (≈ 59.6 µM) in assay [5]; 32 µg/mL in assay [6]. Further, the MIC80 in assay [7] and in assay [8] was > 64 µg/mL throughout.

As for `CC(=O)Nc1ccc(Oc2ccc3c(C)cc(=O)oc3c2)nc1`, the MIC80 in assay [1] was 1 µg/mL; in assay [2], > 64 µg/mL; in assay [3] it was 8 µg/mL; in assay [4] it was 16 µg/mL; in assay [5], 1 µg/mL (≈ 3.22 µM); in assay [6], 16 µg/mL. Further, the MIC80 came out at 0.25 µg/mL (≈ 0.806 µM) in assay [7] and 8 µg/mL (≈ 25.8 µM) in assay [8].

In the case of `Cc1cc(=O)oc2cc(Oc3ccc(NC(=O)C(F)(F)F)cn3)ccc12`, the MIC80 was 1 µg/mL in assay [1]; > 64 µg/mL in assay [2]; 16 µg/mL in assay [3]; 32 µg/mL in assay [4]; 0.25 µg/mL (≈ 0.686 µM) in assay [5]; 16 µg/mL in assay [6]. In addition, the values for the MIC80 in assay [7] and in assay [8] were 0.25 µg/mL (≈ 0.686 µM) and 32 µg/mL (≈ 87.8 µM), respectively.

As for `Cc1cc(=O)oc2cc(Oc3ccc(NC(=O)C(C)(C)C)cn3)ccc12`, the MIC80 in assay [1] is 32 µg/mL; in assay [2], > 64 µg/mL; in assay [3], 32 µg/mL; in assay [4], 16 µg/mL; in assay [5] it was 4 µg/mL (≈ 11.4 µM); in assay [6], 1 µg/mL. Further, the MIC80 in assay [7] is 4 µg/mL (≈ 11.4 µM); in assay [8], 32 µg/mL (≈ 90.8 µM).

For the compound `Cc1cc(=O)oc2cc(Oc3ccc(NC(=O)CN(C)C)cn3)ccc12`, the MIC80 in assay [1] is 32 µg/mL; in assay [2], > 64 µg/mL; in assay [3] it was 1 µg/mL; in assay [4], 32 µg/mL; in assay [5] it was 16 µg/mL (≈ 45.3 µM); in assay [6] it was 16 µg/mL. Also, the results for the MIC80 in assay [7] and in assay [8] were 32 µg/mL (≈ 90.6 µM) and 16 µg/mL (≈ 45.3 µM), respectively.

Take `Cc1cc(=O)oc2cc(Oc3ccc(NC(=O)CC#N)cn3)ccc12`: the MIC80 is 4 µg/mL in assay [1]; > 64 µg/mL in assay [2]; > 64 µg/mL in assay [3]; 16 µg/mL in assay [4]; 16 µg/mL (≈ 47.7 µM) in assay [5]; 0.25 µg/mL in assay [6]. In addition, the MIC80 in assay [7] was determined as 0.25 µg/mL (≈ 0.746 µM); in assay [8], 16 µg/mL (≈ 47.7 µM).

For the compound `Cc1cc(=O)oc2cc(Oc3ccc(NC(=O)C4CC4)cn3)ccc12`, the MIC80 in assay [1] is 8 µg/mL; in assay [2], > 64 µg/mL; in assay [3], 16 µg/mL; in assay [4] it was 32 µg/mL; in assay [5], > 64 µg/mL; in assay [6], 8 µg/mL. Further, the MIC80 in assay [7] was found to be 16 µg/mL (≈ 47.6 µM); in assay [8], 32 µg/mL (≈ 95.1 µM).

With `Cc1cc(=O)oc2cc(Oc3ccc(NC(=O)C4CCCCC4)cn3)ccc12`, the MIC80 was 4 µg/mL in assay [1]; > 64 µg/mL in assay [2]; > 64 µg/mL in assay [3]; > 64 µg/mL in assay [4]; > 64 µg/mL in assay [5]; 8 µg/mL in assay [6]. Moreover, the MIC80 in assay [7] is > 64 µg/mL; in assay [8], 32 µg/mL (≈ 84.6 µM).

For the compound `Cc1cc(=O)oc2cc(Oc3ccc(NC(=O)c4ccccc4)cn3)ccc12`, the MIC80 is 1 µg/mL in assay [1]; > 64 µg/mL in assay [2]; 16 µg/mL in assay [3]; 32 µg/mL in assay [4]; 4 µg/mL (≈ 10.7 µM) in assay [5]; 8 µg/mL in assay [6]. The MIC80 in assay [7] and in assay [8] was 16 µg/mL (≈ 43 µM) each time.

`Cc1cc(=O)oc2cc(Oc3ccc(NC(=O)c4ccccn4)cn3)ccc12`: the MIC80 in assay [1] was 32 µg/mL; in assay [2] it was > 64 µg/mL; in assay [3], 16 µg/mL; in assay [4], 16 µg/mL; in assay [5] it was 16 µg/mL (≈ 42.9 µM); in assay [6], 16 µg/mL. For the same compound, the results for the MIC80 in assay [7] and in assay [8] were 16 µg/mL (≈ 42.9 µM) and 32 µg/mL (≈ 85.7 µM), respectively.

For `Cc1cc(=O)oc2cc(Oc3ccc(NC(=O)c4cccnc4)cn3)ccc12`, the MIC80 is 32 µg/mL in assay [1]; > 64 µg/mL in assay [2]; 32 µg/mL in assay [3]; 16 µg/mL in assay [4]; 32 µg/mL (≈ 85.7 µM) in assay [5]; 32 µg/mL in assay [6]. Also, the MIC80 came out at 32 µg/mL (≈ 85.7 µM) in assay [7] and 16 µg/mL (≈ 42.9 µM) in assay [8].

With `Cc1cc(=O)oc2cc(Oc3ccc(NC(=O)c4ccncc4)cn3)ccc12`, the MIC80 was 0.25 µg/mL in assay [1]; > 64 µg/mL in assay [2]; 16 µg/mL in assay [3]; 8 µg/mL in assay [4]; 16 µg/mL (≈ 42.9 µM) in assay [5]; 32 µg/mL in assay [6]. Also, the MIC80 in assay [7] was found to be 16 µg/mL (≈ 42.9 µM); in assay [8] it was 32 µg/mL (≈ 85.7 µM).

For `Cc1cc(=O)oc2cc(Oc3ccc(NC(=O)c4ccco4)cn3)ccc12`, the MIC80 in assay [1] is > 64 µg/mL; in assay [2], > 64 µg/mL; in assay [3], 8 µg/mL; in assay [4], 16 µg/mL; in assay [5], 16 µg/mL (≈ 44.2 µM); in assay [6], 16 µg/mL. Also, the results for the MIC80 in assay [7] and in assay [8] were 32 µg/mL (≈ 88.3 µM) and > 64 µg/mL, respectively.

On to `Cc1cc(=O)oc2cc(Oc3ccc(NC(=O)c4cnccn4)cn3)ccc12`, for which the MIC80 is 32 µg/mL in assay [1]; > 64 µg/mL in assay [2]; 1 µg/mL in assay [3]; 16 µg/mL in assay [4]; 4 µg/mL (≈ 10.7 µM) in assay [5]; 0.25 µg/mL in assay [6]. For the same compound, the figures for the MIC80 in assay [7] and in assay [8] were 4 µg/mL (≈ 10.7 µM) and 1 µg/mL (≈ 2.67 µM), respectively.

Consider `Cc1cnc(C(=O)Nc2ccc(Oc3ccc4c(C)cc(=O)oc4c3)nc2)cn1`, for which the MIC80 is > 64 µg/mL in assay [1]; > 64 µg/mL in assay [2]; 1 µg/mL in assay [3]; 4 µg/mL in assay [4]; 16 µg/mL (≈ 41.2 µM) in assay [5]; 16 µg/mL in assay [6]. Further, the MIC80 in assay [7] was found to be 16 µg/mL (≈ 41.2 µM); in assay [8] it was 4 µg/mL (≈ 10.3 µM).

Turning to `Cc1cc(=O)oc2cc(Oc3ccc(NC(=O)Cc4ccccc4)cn3)ccc12`, the MIC80 in assay [1], in assay [2], in assay [3], in assay [4], in assay [5] and in assay [6] was > 64 µg/mL in each case. The MIC80 in assay [7] and in assay [8] was > 64 µg/mL each time.

Take `Cc1cc(=O)oc2cc(Oc3ccc(NC(=O)/C=C/c4ccccc4)cn3)ccc12`: the MIC80 is > 64 µg/mL in assay [1]; > 64 µg/mL in assay [2]; > 64 µg/mL in assay [3]; 16 µg/mL in assay [4]; > 64 µg/mL in assay [5]; 4 µg/mL in assay [6]. In addition, the MIC80 in assay [7] and in assay [8] was > 64 µg/mL throughout.

In the case of `C[C@@H]1[C@H](O)[C@@H](C)/C=C/C=C/C=C/C=C/C=C/C=C/C=C/[C@H](O[C@@H]2O[C@H](C)[C@@H](O)[C@H](N)[C@@H]2O)C[C@@H]2O[C@](O)(C[C@@H](O)C[C@@H](O)[C@H](O)CC[C@@H](O)C[C@@H](O)CC(=O)O[C@H]1C)C[C@H](O)[C@H]2C(=O)O` [AMPHOTERICIN B], the MIC80 was 1 µg/mL in assay [1]; 1 µg/mL in assay [2]; 1 µg/mL in assay [3]; 0.25 µg/mL in assay [4]; 0.25 µg/mL (≈ 0.271 µM) in assay [5]; 1 µg/mL in assay [6]. Further, the MIC80 in assay [7] stood at 0.25 µg/mL (≈ 0.271 µM); in assay [8] it was 1 µg/mL (≈ 1.08 µM).

For `OC(Cn1cncn1)(Cn1cncn1)c1ccc(F)cc1F` [FLUCONAZOLE], the MIC80 in assay [1] is 4 µg/mL; in assay [2], > 64 µg/mL; in assay [3], 4 µg/mL; in assay [4], 4 µg/mL; in assay [5] it was 0.25 µg/mL (≈ 0.816 µM); in assay [6] it was 1 µg/mL. Further, the MIC80 in assay [7] stood at 0.25 µg/mL (≈ 0.816 µM); in assay [8], 4 µg/mL (≈ 13.1 µM).

For `Cc1cc(=O)oc2cc(O)ccc12` [HYMECROMONE], the MIC80 is 32 µg/mL in assay [1]; > 64 µg/mL in assay [2]; > 64 µg/mL in assay [3]; > 64 µg/mL in assay [4]; > 64 µg/mL in assay [5]; 32 µg/mL in assay [6]. For the same compound, the MIC80 in assay [7] and in assay [8] was > 64 µg/mL each time.
